Measured values taken from US5057503A, “Derivativized polysaccharides with biologic activity, method of their isolation, and uses therefor” (The Brigham and Women's Hospital, priority 1989, dated 1991).

Test system: human monocyte β-glucan receptors
Test: Inhibition of adherent monocyte phagocytosis of zymosan particles after pretreatment with isolated carbohydrates
Assay type: cell-based
Conditions: for phagocytosis-inhibiting activity after derivatization with 2-aminopyridine (in words): 100 ng/ml tested; for activity after derivatization with 2-aminopyridine (in words): as much as 800 ng/ml in the functional monocyte assays; for phagocytosis-inhibiting activity / interaction with human monocyte β-glucan receptors (in words): concentration not given

| phagocytosis-inhibiting activity after derivatization with 2-aminopyridine (in words) | activity after derivatization with 2-aminopyridine (in words) | phagocytosis-inhibiting activity / interaction with human monocyte β-glucan receptors (in words) | SMILES | effect on monocyte ingestion of zymosan (in words) (500 ng/ml to 100 μg/ml, without derivatization) | proportion of monocytes ingesting zymosan after pretreatment (100 μg/ml, without derivatization, without pretreatment 67% (synthetic β-heptaglucoside) and 50% (maltoheptose)) [%] |
| --- | --- | --- | --- | --- | --- |
| not acquired | remained inactive | remained inactive | OC[C@H]1O[C@H](O[C@H]2[C@H](O)[C@@H](O)[C@@H](O[C@H]3[C@H](O)[C@@H](O)[C@@H](O[C@H]4[C@H](O)[C@@H](O)[C@@H](O[C@H]5[C@H](O)[C@@H](O)[C@@H](O[C@H]6[C@H](O)[C@@H](O)[C@@H](O[C@H]7[C@H](O)[C@@H](O)C(Nc8ccccn8)O[C@@H]7CO)O[C@@H]6CO)O[C@@H]5CO)O[C@@H]4CO)O[C@@H]3CO)O[C@@H]2CO)[C@H](O)[C@@H](O)[C@@H]1O (some centres unmarked) [Derivatized maltoheptose] |  |  |
| not acquired | remained inactive | remained inactive | OC[C@H]1O[C@@H](OC[C@H]2O[C@@H](OC[C@H]3O[C@@H](OC[C@H]4O[C@@H](OC[C@H]5OC(Nc6ccccn6)[C@H](O)[C@@H](O)[C@@H]5O)[C@H](O)[C@@H](O[C@@H]5O[C@H](CO)[C@@H](O)[C@H](O)[C@H]5O)[C@@H]4O)[C@H](O)[C@@H](O)[C@@H]3O)[C@H](O)[C@@H](O[C@@H]3O[C@H](CO)[C@@H](O)[C@H](O)[C@H]3O)[C@@H]2O)[C@H](O)[C@@H](O)[C@@H]1O (stereo partly drawn) [Derivatized synthetic β-heptaglucoside] |  |  |
|  |  |  | OC[C@H]1O[C@H](O[C@H]2[C@H](O)[C@@H](O)[C@@H](O[C@H]3[C@H](O)[C@@H](O)[C@@H](O[C@H]4[C@H](O)[C@@H](O)[C@@H](O[C@H]5[C@H](O)[C@@H](O)[C@@H](O[C@H]6[C@H](O)[C@@H](O)[C@@H](O[C@H]7[C@H](O)[C@@H](O)C(O)O[C@@H]7CO)O[C@@H]6CO)O[C@@H]5CO)O[C@@H]4CO)O[C@@H]3CO)O[C@@H]2CO)[C@H](O)[C@@H](O)[C@@H]1O (some centres unmarked) [Maltoheptose] | no effect | 52 |
